Assay results: ChEMBL document CHEMBL1201862, “PubChem BioAssay data set” (2004)
Values belong to the molecule of their own block, whether it stands above or below them. The source made the active and inactive calls.

Key:
[1] = molecular target: 72 kDa type IV collagenase (Homo sapiens, UniProt P08253); assay: Dose Response validation of uHTS RPN11 inhibitor hits using a MMP-2 Fluorescence assay.; format: functional
Prothrombin = Prothrombin (Bos taurus, UniProt P00735); assay: thrombin inhibition, dose response, biochemical, fluorescence polarization, uHTS hits (AID 602369); format: functional
[2] = molecular target: 26S proteasome non-ATPase regulatory subunit 14 (Homo sapiens, UniProt O00487); assay: inhibition of proteasome subunit RPN11 – biochemical, fluorescence polarization, uHTS hits, confirmation (AID 602368); format: functional
[3] = molecular target: Dual specificity tyrosine-phosphorylation-regulated kinase 1A (Rattus norvegicus, UniProt Q63470); format: biochemical, Homo sapiens
Steroidogenic factor 1 = Steroidogenic factor 1 (Homo sapiens, UniProt Q13285); assay: Counterscreen for inverse agonists of the liver receptor homolog-1 (LRH-1; NR5A2): Luminescence-based cell-based high throughput dose response assay to identify inverse agonists of the Steroidogenic Factor 1 Nuclear Receptor (SF1; NR5A1).; format: functional
[4] = StAR promoter reporter inhibition counter-screen, dose response, counter-screen for LRH-1 inverse agonist project, cell-based, luminescence, luciferase reporter (AID 651969); format: functional
[5] = molecular target: Nuclear receptor subfamily 5 group A member 2 (Homo sapiens, UniProt O00482); format: functional, cell-based;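 also: HEK293T cells transfected with LRH-1 and a StAR promoter luciferase reporter; potency for inhibitors that lower LRH-1 driven reporter light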
[6] = molecular target: T1, Type-1 angiotensin II receptor (Homo sapiens, UniProt P30556); assay: AT1 receptor antagonists, dose response, selectivity assay for APJ receptor antagonist project, cell-based, uHTS hits (AID 463214); format: functional;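 also: antagonist potency against angiotensin II stimulated AT1 response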
T1 sequence (P30556 whole entry): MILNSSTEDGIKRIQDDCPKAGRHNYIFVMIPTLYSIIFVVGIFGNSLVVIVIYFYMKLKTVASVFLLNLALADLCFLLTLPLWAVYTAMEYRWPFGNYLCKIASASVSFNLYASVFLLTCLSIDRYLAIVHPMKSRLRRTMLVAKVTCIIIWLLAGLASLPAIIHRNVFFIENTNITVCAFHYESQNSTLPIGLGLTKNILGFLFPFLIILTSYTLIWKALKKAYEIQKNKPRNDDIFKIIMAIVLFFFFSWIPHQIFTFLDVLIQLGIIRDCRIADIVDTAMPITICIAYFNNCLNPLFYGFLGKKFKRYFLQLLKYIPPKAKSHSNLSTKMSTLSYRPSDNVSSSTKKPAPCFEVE

Beta-galactosidase = Beta-galactosidase (Escherichia coli, UniProt Q8VNN2); assay: PubChem AID 485352; format: functional
[7] = molecular target: T2, Probable nicotinate-nucleotide adenylyltransferase (Staphylococcus aureus (strain N315), UniProt P65502); format: functional, Staphylococcus aureus subsp. aureus N315;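 as to IC50 Mean: confirmatory dose-response retesting of NadD inhibitor hits first found in an ultra-high-throughput screen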
[8] = molecular target: T2, Probable nicotinate-nucleotide adenylyltransferase; format: functional, Staphylococcus aureus subsp. aureus N315; details: read-out: IC50_Mean
[9] = molecular target: Heat shock protein HSP 90-alpha (Homo sapiens, UniProt P07900); format: functional, organism-based
[10] = ARNT/TACC3 interaction disruptors, potency, confirmation, biochemical, AlphaScreen, cherry-picked samples (AID 651703); format: functional, Homo sapiens;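 also: His-tagged ARNT PAS-B domain paired with GST-TACC3 E629A dimer coactivator fragment; potency of inhibitors that break up the complex and lower AlphaScreen signal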
[11] = molecular target: T3, Sentrin-specific protease 6 (Homo sapiens, UniProt Q9GZR1); format: functional;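 also: Luminescence-based dose-response confirmatory assay of SENP6 inhibition, following up an ultra-high-throughput screen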
T3 sequence (Q9GZR1 whole entry): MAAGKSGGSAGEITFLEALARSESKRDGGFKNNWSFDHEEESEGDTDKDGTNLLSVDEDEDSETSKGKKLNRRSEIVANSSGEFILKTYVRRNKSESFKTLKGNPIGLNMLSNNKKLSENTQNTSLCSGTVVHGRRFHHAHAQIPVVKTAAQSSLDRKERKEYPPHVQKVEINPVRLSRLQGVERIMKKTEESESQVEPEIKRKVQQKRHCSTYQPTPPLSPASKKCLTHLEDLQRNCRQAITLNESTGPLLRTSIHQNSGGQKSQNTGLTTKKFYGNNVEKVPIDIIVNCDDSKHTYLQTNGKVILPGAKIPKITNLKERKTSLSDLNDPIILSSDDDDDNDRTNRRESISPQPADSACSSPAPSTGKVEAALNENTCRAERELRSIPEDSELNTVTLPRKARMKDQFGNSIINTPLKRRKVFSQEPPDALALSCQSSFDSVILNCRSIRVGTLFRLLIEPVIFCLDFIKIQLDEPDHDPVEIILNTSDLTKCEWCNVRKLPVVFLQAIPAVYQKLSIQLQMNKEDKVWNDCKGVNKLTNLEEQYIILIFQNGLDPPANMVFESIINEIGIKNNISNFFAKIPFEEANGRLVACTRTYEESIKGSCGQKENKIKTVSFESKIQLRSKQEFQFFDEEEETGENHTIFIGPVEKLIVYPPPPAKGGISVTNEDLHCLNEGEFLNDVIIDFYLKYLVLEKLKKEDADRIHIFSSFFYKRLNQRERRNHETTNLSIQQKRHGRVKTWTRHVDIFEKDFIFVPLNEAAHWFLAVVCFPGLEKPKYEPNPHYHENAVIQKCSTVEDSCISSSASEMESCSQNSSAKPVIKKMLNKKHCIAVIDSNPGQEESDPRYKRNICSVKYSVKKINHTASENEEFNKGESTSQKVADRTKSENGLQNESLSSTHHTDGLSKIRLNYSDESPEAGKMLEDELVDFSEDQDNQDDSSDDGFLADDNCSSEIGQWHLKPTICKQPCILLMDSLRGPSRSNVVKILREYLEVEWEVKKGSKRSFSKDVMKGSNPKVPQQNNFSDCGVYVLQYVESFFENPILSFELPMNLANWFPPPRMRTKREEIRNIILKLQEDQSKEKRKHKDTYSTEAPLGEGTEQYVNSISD

Caspase-3 = molecular target: T4, Caspase-3 (Homo sapiens, UniProt P42574); format: functional;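 also: Dose-response selectivity test against caspase-3 for candidate inhibitors of sentrin-specific proteases (SENPs)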
T4 sequence (P42574 whole entry): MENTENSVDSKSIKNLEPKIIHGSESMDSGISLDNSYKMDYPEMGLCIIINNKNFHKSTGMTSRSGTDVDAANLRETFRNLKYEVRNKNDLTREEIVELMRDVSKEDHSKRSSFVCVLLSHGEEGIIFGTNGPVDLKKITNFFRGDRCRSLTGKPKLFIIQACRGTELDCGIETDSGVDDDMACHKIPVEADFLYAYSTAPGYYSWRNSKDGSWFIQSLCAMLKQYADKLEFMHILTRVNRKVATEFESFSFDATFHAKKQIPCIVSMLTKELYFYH

HeLa = assay: HeLa cell cytotoxicity, dose response, cytotoxicity control for MITF activator project, CellTiter-Glo luminescence, cherry-pick samples (AID 540259); format: functional, cell-based; details: Homo sapiens
[12] = molecular target: T5, Sentrin-specific protease 7 (Homo sapiens, UniProt Q9BQF6); format: functional;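 also: Luminescence-based dose-response confirmation of ultra-high-throughput screening hits, measuring inhibition of SENP7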
T5 sequence (Q9BQF6 whole entry): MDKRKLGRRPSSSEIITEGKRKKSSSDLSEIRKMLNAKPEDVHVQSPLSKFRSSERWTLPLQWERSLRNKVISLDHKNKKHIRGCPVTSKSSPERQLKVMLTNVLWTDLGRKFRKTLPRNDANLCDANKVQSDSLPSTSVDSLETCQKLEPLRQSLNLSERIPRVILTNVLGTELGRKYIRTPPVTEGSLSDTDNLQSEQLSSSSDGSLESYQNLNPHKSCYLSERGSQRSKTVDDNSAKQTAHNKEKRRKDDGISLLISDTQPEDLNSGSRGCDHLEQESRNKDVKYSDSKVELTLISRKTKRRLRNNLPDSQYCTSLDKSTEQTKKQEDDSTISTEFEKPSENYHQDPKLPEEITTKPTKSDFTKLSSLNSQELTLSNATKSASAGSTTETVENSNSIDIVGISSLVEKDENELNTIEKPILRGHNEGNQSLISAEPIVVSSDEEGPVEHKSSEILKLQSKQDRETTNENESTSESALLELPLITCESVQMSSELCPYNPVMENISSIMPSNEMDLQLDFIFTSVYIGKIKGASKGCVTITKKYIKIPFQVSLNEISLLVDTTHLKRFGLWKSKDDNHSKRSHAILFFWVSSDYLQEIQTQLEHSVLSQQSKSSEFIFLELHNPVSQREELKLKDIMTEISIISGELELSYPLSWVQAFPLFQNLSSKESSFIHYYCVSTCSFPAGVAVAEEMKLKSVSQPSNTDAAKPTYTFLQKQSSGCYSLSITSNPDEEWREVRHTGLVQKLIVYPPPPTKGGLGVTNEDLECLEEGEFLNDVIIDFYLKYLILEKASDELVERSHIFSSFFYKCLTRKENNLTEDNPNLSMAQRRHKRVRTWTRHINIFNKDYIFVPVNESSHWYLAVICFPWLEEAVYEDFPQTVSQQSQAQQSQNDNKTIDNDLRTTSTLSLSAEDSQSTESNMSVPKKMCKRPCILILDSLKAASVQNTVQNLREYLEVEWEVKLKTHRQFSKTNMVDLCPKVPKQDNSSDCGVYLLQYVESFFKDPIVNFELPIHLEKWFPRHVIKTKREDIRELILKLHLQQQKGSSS

[13] = molecular target: T6, Sentrin-specific protease 8 (Homo sapiens, UniProt Q96LD8); format: functional;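 also: luminescence read-out of SENP8 inhibition, dose-response confirmation following an ultra-high-throughput screen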
T6 sequence (Q96LD8 whole entry): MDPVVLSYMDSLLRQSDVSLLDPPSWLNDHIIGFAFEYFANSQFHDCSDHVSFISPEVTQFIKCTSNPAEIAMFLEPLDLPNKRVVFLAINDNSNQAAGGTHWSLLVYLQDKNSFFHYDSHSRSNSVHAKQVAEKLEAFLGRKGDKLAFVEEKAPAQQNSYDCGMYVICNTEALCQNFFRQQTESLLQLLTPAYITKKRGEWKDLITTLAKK

Streptococcus = assay: Group A Streptococcus viability loss, dose response, counter-screen for streptokinase expression inhibitor project, luminescence, BacTiterGlo (AID 1915); format: functional, organism-based;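 also: potency for reduction of bacterial viability or growth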
[14] = system: Streptococcus sp. 'group A'; assay: growth inhibition of control SK(-) GAS strain, dose response, counter-screen for streptokinase expression inhibitor project, luminescence, kanamycin, BacTiterGlo, confirmation (AID 1900); format: functional, organism-based

Sequence of 26S proteasome non-ATPase regulatory subunit 14 (O00487 whole entry): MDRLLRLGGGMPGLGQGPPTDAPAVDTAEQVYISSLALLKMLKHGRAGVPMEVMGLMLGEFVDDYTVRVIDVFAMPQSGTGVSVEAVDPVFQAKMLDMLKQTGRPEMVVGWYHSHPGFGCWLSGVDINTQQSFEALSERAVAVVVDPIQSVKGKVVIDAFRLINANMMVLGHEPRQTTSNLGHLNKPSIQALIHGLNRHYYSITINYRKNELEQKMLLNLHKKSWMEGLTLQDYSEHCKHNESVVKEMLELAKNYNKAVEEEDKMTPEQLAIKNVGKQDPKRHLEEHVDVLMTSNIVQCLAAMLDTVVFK
Sequence of Nuclear receptor subfamily 5 group A member 2 (O00482 whole entry): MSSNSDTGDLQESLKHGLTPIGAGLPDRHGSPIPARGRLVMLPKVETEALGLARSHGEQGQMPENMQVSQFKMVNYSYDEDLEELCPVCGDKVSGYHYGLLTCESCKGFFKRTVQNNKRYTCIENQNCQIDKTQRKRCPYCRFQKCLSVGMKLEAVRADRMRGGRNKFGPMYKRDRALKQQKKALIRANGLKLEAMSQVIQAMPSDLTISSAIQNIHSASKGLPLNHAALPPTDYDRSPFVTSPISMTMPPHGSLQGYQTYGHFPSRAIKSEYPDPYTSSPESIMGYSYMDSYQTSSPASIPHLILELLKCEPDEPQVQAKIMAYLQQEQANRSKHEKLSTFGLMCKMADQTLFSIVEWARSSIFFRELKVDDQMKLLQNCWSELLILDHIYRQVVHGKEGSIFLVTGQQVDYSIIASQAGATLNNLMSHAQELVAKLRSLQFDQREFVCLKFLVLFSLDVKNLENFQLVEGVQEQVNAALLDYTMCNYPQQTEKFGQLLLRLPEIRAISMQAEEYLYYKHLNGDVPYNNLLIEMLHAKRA
Sequence of 72 kDa type IV collagenase (P08253 whole entry): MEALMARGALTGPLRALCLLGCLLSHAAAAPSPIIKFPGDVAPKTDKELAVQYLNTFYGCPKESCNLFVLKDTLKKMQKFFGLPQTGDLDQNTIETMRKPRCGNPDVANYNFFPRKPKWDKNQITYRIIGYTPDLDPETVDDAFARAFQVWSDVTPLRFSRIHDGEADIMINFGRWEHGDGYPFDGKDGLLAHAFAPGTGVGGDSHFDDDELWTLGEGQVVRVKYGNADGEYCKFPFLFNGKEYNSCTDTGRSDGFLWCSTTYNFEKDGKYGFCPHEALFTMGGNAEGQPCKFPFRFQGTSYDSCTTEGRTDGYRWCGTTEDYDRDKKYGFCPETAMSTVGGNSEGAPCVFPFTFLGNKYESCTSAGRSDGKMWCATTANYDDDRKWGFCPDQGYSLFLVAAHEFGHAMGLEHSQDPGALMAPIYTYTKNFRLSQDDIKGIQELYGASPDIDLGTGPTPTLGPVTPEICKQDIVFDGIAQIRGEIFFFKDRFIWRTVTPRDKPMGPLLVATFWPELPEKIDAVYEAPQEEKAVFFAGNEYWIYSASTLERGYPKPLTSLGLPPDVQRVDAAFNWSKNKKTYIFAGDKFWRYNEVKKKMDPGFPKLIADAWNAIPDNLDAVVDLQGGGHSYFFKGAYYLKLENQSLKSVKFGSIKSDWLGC
Sequence of Steroidogenic factor 1 (Q13285 whole entry): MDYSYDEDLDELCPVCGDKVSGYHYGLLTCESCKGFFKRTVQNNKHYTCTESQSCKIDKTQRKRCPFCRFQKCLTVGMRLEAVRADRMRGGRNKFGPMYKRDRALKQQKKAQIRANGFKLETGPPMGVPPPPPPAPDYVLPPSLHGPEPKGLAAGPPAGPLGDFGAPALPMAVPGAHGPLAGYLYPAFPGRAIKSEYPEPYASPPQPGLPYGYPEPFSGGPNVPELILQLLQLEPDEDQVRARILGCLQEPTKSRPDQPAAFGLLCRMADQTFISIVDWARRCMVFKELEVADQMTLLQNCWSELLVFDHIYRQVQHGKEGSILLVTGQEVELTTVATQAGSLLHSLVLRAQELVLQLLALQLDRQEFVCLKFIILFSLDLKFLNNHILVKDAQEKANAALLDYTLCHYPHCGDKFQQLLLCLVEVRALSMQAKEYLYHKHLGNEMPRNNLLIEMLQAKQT
Sequence of Beta-galactosidase (Q8VNN2 whole entry): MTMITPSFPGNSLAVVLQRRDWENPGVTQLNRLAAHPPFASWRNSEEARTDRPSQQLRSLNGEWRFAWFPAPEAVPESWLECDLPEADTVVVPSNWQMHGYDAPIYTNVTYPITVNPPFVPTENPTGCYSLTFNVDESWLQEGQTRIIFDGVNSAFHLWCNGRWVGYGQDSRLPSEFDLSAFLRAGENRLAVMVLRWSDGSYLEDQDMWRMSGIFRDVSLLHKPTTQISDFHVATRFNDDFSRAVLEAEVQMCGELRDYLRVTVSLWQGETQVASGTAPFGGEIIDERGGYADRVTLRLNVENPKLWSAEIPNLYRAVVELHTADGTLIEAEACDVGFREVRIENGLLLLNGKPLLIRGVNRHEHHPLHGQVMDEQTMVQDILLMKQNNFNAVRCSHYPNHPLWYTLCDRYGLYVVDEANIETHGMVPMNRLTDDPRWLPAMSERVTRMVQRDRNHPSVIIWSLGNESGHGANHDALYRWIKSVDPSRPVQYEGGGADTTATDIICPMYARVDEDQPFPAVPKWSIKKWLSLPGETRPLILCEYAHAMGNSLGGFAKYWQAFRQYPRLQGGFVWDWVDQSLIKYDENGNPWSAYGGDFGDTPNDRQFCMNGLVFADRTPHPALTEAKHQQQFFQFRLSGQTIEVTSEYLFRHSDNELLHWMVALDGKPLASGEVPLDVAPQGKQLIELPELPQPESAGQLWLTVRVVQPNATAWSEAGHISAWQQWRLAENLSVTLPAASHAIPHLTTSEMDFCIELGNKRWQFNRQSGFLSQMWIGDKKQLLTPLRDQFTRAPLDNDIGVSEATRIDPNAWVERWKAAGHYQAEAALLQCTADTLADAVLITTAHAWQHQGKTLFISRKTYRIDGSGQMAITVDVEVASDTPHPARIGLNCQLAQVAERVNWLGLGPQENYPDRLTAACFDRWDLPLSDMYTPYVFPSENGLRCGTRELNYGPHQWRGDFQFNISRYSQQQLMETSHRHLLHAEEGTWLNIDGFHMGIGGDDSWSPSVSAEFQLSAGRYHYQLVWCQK

SMILES: CC(=O)c1cccc(NC(=O)CCc2nc3sc4c(c3c(=O)[nH]2)CCCC4)c1
IC50 [1]: > 100 µM (inactive) | IC50 (Prothrombin): 35.5 µM (active) | IC50 [2]: 33.9 µM (active)

SMILES: COc1ccc(/C=C2\SC(=S)N(C(C)C(=O)NC3C=CS(=O)(=O)C3)C2=O)cc1 (stereo not drawn)
AC50 [3]: 2.73 µM (active)

SMILES: N#CCSc1ccccc1NC(=O)CN1C(=O)C2CC=CCC2C1=O (stereo not drawn)
IC50 (Steroidogenic factor 1): 2.83 µM (active) | IC50 [4]: 35.9 µM (inactive) | IC50 [5]: 6.85 µM (active)

SMILES: COc1ccc(NN=C2C(=O)CC(C)(C)CC2=O)c(OC)c1
IC50 [1]: > 100 µM (inactive) | IC50 (Prothrombin): 27.3 µM (active) | IC50 [2]: 27 µM (active)

SMILES: Cc1ccc(Nc2nnc(SCC(O)=C(C#N)c3nc4ccccc4[nH]3)s2)c(C)c1
IC50 [7]: 8.52 µM (active) | IC50 [8]: 26.7 µM (active)

SMILES: O=C(N[C@H]1CC[C@H](CCn2cc(-c3ccccn3)nn2)O[C@H]1CO)c1ccccc1
AC50 [10]: 78.4 µM (active)

SMILES: Clc1ccc(COn2nnc3ccccc32)c(Cl)c1
IC50 [11]: 31.2 µM (active) | IC50 (Caspase-3): 24.1 µM (active) | AC50 (HeLa): 77.9 µM (active) | IC50 [12]: 8.88 µM (active) | IC50 [13]: 35.3 µM (active)

SMILES: CCc1ccccc1NC(=O)CSc1nnc([C@@H]2CCCN2C(=O)OC(C)(C)C)o1
IC50 (Steroidogenic factor 1): 1.86 µM (active) | IC50 [4]: 35.9 µM (inactive) | IC50 [5]: 12 µM (inactive)

SMILES: CCCc1nnc(SCC(=O)Nc2ccc(C(=O)OCC)cc2)o1
IC50 (Steroidogenic factor 1): 1.61 µM (active) | IC50 [4]: 35.9 µM (inactive) | IC50 [5]: 35.9 µM (inactive)

SMILES: N=C(N)NC(=O)c1nc(Cl)c(N)nc1N
AC50 [3]: 9.17 µM (active)

SMILES: C=CCn1c(=O)/c(=C2/Sc3cc(OC)ccc3N2C)s/c1=C1\C(=O)N(CC)C(=S)N1C
IC50 [6]: > 40 µM (not active) | EC50 (Beta-galactosidase): > 40 µM (inactive)

SMILES: Oc1cccc2ccc(/C=C/c3cccs3)nc12
IC50 [6]: 10.3 µM (active) | EC50 (Beta-galactosidase): > 40 µM (inactive) | EC50 (Streptococcus): 4.2 µM (active) | EC50 [14]: 1.92 µM (active)

Continued, values first:

IC50 [6]: 21.6 µM (not active) | EC50 (Beta-galactosidase): > 40 µM (inactive)
SMILES: NC(=O)c1ccccc1NCC(=O)c1ccc(F)cc1

AC50 [9]: 3.92 µM (active)
SMILES: Cc1cc(Cl)ccc1C(=O)C1CCCN(C(=O)c2cncs2)C1 (stereo not drawn)

AC50 [9]: 5.23 µM (active)
SMILES: O=C(CCCNC(=O)c1ccc(Cl)cc1)OCc1cccc(Br)c1

IC50 [6]: > 40 µM (not active) | EC50 (Beta-galactosidase): > 40 µM (inactive)
SMILES: Fc1ccc(NC(S)=Nc2ccc(Cl)cc2Cl)cc1

IC50 [1]: > 100 µM (inactive) | IC50 (Prothrombin): 15.5 µM (active) | IC50 [2]: 17.1 µM (active)
SMILES: CC1=C(C(=O)c2ccccc2)C(c2ccc(N3CCOCC3)cc2)NC(=O)N1 (stereo not drawn)

IC50 [1]: > 100 µM (inactive) | IC50 (Prothrombin): > 100 µM (inactive) | IC50 [2]: 13.1 µM (active)
SMILES: CCOc1ccc(CCNC(=O)c2nnn(CC(=O)Nc3ccc(C)cc3)c2N)cc1OCC
